# Laboratory results published in patent US11191820B2, “Method for inducing early T memory response with short peptides anti-tumor vaccine” (OSE IMMUNOTHERAPEUTICS, priority 2015, dated 2021).
# Marks after values point to notes of the source that are not given here.
# Experiments:
# Assay type in all cases: in vivo, human
# [1] = tested on: central memory T cells; assay: Cultured IFN-γ ELISPOT after 10-day in vitro stimulation of PBMC, phase 1/2 NSCLC trial of OSE-2101; set-up: key to net SFC of vaccine positive CTL responses: —, indicates SFC response did not meet criteria and vaccine response was negative
# Description: (§1) Clinical study design. Both trials were designed as phase 1/2, open label, multi-center, single dose, multiple administration studies to evaluate the safety and immunogenicity of the OSE-2101 immunotherapy. Patients were treated with 1 ml OSE-2101 every 3 weeks for a total of six doses. Each dose was administered subcutaneously in the same vicinity in the deltoid or upper thigh region, or at a contralateral site if local side-effects were observed. The study duration for each completed patient was 18 weeks. Clinical responses or patient survival were not measured in either phase 1/2 studies.
# (§2) Clinical sample processing. Blood or leukapheresis product was obtained from patients at the pre-treatment, the Week 9 and Week 18 time points, 3 weeks after the third and sixth dose of OSE-2101 respectively. Peripheral blood mononuclear cells (PBMC) were isolated from samples within 24 hours of collection using a FICOLL-PAQUE density gradient and cryopreserved in containers designed to ensure optimal freezing (Mr. Frosty, Nalgene). For use, cells were rapidly thawed at 37° C. then transferred to human AB serum-containing medium for work-up.
# (§3) Measurement of central T memory cells responses and T effector memory cells. The CTL responses in 16 total patients (10 colon and six NSCLC) were monitored for CTL responses against each epitope and against the wild-type epitope of epitopes analogs. For each patient, the pre-treatment, Week 9 and Week 18 time points were batch-tested in the same experiment to allow pre- versus post-treatment response comparison in the same experiment. Central T memory cells responses were measured using an IFN-γ enzyme-linked immunospot (cultured ELISPOT) assay following in vitro stimulation of PBMC for 10 days with each vaccine epitope. Briefly, PBMC from each time point were stimulated on day 0 with 10 μg/ml of each epitope individually in replicate in 48-well culture plates (2×10^6 PBMC/well). All cultures were fed with rIL-2 (Endogen, Woburn, Mass.; 10 U/ml final concentration) on days 1, 4 and 7. Ten days after initiation of culture, cells were harvested and tested for activity against specific vaccine peptides and corresponding wild-type peptides of vaccine analogs in the T memory ELISPOT assay. Cells were tested in Millipore IP 96-well plates pre-coated with mouse anti-human IFN-γ antibody (Mabtech USA, Cincinnati, Ohio). Five×10^4 cells and 1.25×10^4 cells from each culture were plated in triplicate wells together with 10^5 irradiated autologous PBMC and 10 μg/ml peptide. As a control, CTL were also tested against an irrelevant HLA-A2.1-binding HBV peptide. After 20 hours incubation, T memory ELISPOT plates were developed by performing sequential incubations with biotinylated anti-human IFN-γ antibody (Mabtech USA), Avidin-Peroxidase Complex (APC, Vector Laboratories, Burlingame, Calif.), and 3-amino-9-ethyl carbazole (AEC) substrate (Sigma Aldrich, St. Louis, Mo.). Spot-forming cells (SFC) were enumerated using a computer-assisted image analysis system (Zeiss KS ELISPOT Reader, Carl Zeiss MicroImaging, Thornwood, N.J.). Data is reported as the net SFC per 5×10^4 cells after subtracting spots induced with the irrelevant HBV peptide.
# [2] = tested on: central memory T cells; assay: Cultured IFN-γ ELISPOT after 10-day in vitro stimulation of PBMC, phase 1/2 colon cancer trial of OSE-2101; set-up: key to net SFC of vaccine positive CTL responses: —, indicates SFC response did not meet criteria and vaccine response was negative; settings: for Mean SFC: 10 colon patients
# Description: as §1, §2, §3
# [3] = tested on: central memory T cells; assay: Central memory T cell cultured ELISPOT, phase 2 trial in advanced NSCLC
# Description: CTL Immune responses measured though cultured Elispot. The immunogenicity was measured in Phase 2 clinical trial on cryopreserved PBMC from each test sample were thawed in 5% human culture medium (RPMI-1640 medium with 25 mM HEPES, supplemented with 5% human AB serum, 4 mM L-glutamine, 0.5 mM sodium pyruvate, 0.1 mM MEM non-essential amino acids, 100 μg/ml streptomycin, and 100 U/ml penicillin) containing 30 μg/ml DNAase. After centrifugation for 5 minutes at 1200 rpm, the cell pellets were resuspended in 5% human culture medium and washed 2 times. For the central Memory T cell cultured ELISPOT assay, 2×10^6/ml PBMC were placed in replicate wells in a 48-well plates and stimulated for 10 days with 10 μg/ml of each peptide. As a positive control, PBMC were also stimulated with a pool of recall viral peptides. Human rIL2 (10 U/ml) was added to the peptide-stimulated cultures at day 1, day 4 and day 7. After 10 days the stimulated cells were harvested and plated at a concentration of 5×10^4/well. Assay wells also received irradiated autologous PBMC (1×10^5/well) and 10 μg/ml peptide, either the vaccine peptide, irrelevant peptide or positive control peptides. Cells stimulated in vitro with each analog epitope were also tested against the corresponding wild-type epitope.
# Data analysis and acceptance criteria. Mean and standard deviation (SD) of spots in replicate wells were calculated in all assays by transferring raw ELISPOT data from each experiment to an Excel-based computer program. Positive vaccine-induced T-cell responses were determined according to the criteria described below.
# Acceptance Criteria for peptide-Induced specific T-cell response through central memory T cells: The positive criteria for CTL responses used in the phase 2 trial was identical to the criteria in the phase 1/2 trials which was established prospectively after analyzing the variability of pre-treatment responses in patients against each vaccine epitope and the irrelevant HBV control epitope. A positive peptide-induced CTL/T memory response to a given epitope met all of the following conditions: 1) was greater than 5 SFC above the irrelevant epitope response, 2) was greater than the mean SFC of the irrelevant epitope response, plus 2 SD, and 3) was two-fold greater than the SFC response in the pre-vaccination sample from the same patient, plus 2 SD. The inclusion of “plus two standard deviations” was used to accommodate the assay variability and served to increase the criteria stringency.
sequence,measurement,setting,value
LLTFWNPPV [CEA.24V9 A],No. Positive Responses,"[1]; 6 NSCLC patients, Week 9",0
same,Mean SFC,"[1]; 6 NSCLC patients, Week 18","34.3 SFC per 50,000 cells"
same,No. Positive Responses,"[1]; 6 NSCLC patients, Week 18",2
same,net SFC of vaccine positive CTL responses,"[1]; NSCLC patient 201, Week 9",—
same,net SFC of vaccine positive CTL responses,"[1]; NSCLC patient 201, Week 18",—
same,net SFC of vaccine positive CTL responses,"[1]; NSCLC patient 502, Week 9",—
same,net SFC of vaccine positive CTL responses,"[1]; NSCLC patient 502, Week 18",—
same,net SFC of vaccine positive CTL responses,"[1]; NSCLC patient 504, Week 9",—
same,net SFC of vaccine positive CTL responses,"[1]; NSCLC patient 504, Week 18","25.3^d) SFC per 50,000 cells"
same,net SFC of vaccine positive CTL responses,"[1]; NSCLC patient 505, Week 9",—
same,net SFC of vaccine positive CTL responses,"[1]; NSCLC patient 505, Week 18",—
same,net SFC of vaccine positive CTL responses,"[1]; NSCLC patient 532, Week 9",—
same,net SFC of vaccine positive CTL responses,"[1]; NSCLC patient 532, Week 18","43.3 SFC per 50,000 cells"
same,net SFC of vaccine positive CTL responses,"[1]; NSCLC patient 651, Week 9",—
same,net SFC of vaccine positive CTL responses,"[1]; NSCLC patient 651, Week 18",—
same,Mean SFC,[2]; Week 9,"86.5 SFC per 50,000 cells"
same,Mean SFC,[2]; Week 18,"172.0 SFC per 50,000 cells"
same,net SFC of vaccine positive CTL responses,"[2]; colon patient 551, Week 9","42.7^d) SFC per 50,000 cells"
same,net SFC of vaccine positive CTL responses,"[2]; colon patient 551, Week 18",—
same,net SFC of vaccine positive CTL responses,"[2]; colon patient 601, Week 9","118.0 SFC per 50,000 cells"
same,net SFC of vaccine positive CTL responses,"[2]; colon patient 601, Week 18","96.0 SFC per 50,000 cells"
same,net SFC of vaccine positive CTL responses,"[2]; colon patient 602, Week 9",—
same,net SFC of vaccine positive CTL responses,"[2]; colon patient 602, Week 18",—
same,net SFC of vaccine positive CTL responses,"[2]; colon patient 603, Week 9","63.0 SFC per 50,000 cells"
same,net SFC of vaccine positive CTL responses,"[2]; colon patient 603, Week 18","20.7 SFC per 50,000 cells"
same,net SFC of vaccine positive CTL responses,"[2]; colon patient 604, Week 9","55.3 SFC per 50,000 cells"
same,net SFC of vaccine positive CTL responses,"[2]; colon patient 604, Week 18","187.0 SFC per 50,000 cells"
same,net SFC of vaccine positive CTL responses,"[2]; colon patient 605, Week 9","43.7 SFC per 50,000 cells"
same,net SFC of vaccine positive CTL responses,"[2]; colon patient 605, Week 18","109.7 SFC per 50,000 cells"
same,net SFC of vaccine positive CTL responses,"[2]; colon patient 606, Week 9",—
same,net SFC of vaccine positive CTL responses,"[2]; colon patient 606, Week 18",—
same,net SFC of vaccine positive CTL responses,"[2]; colon patient 607, Week 9","196.7 SFC per 50,000 cells"
same,net SFC of vaccine positive CTL responses,"[2]; colon patient 607, Week 18","586.7 SFC per 50,000 cells"
same,net SFC of vaccine positive CTL responses,"[2]; colon patient 608, Week 9",—
same,net SFC of vaccine positive CTL responses,"[2]; colon patient 608, Week 18",—
same,net SFC of vaccine positive CTL responses,"[2]; colon patient 609, Week 9",—
same,net SFC of vaccine positive CTL responses,"[2]; colon patient 609, Week 18","31.7 SFC per 50,000 cells"
same,% of patients with positive CTL/central memory T cell response,"[3]; phase 2, month 9",57%
same,patients with positive CTL/central memory T cell response / patients tested,"[3]; phase 2, month 9",4/7
same,% of patients with positive CTL/central memory T cell response,"[3]; phase 2, month 12",50%
same,patients with positive CTL/central memory T cell response / patients tested,"[3]; phase 2, month 12",2/4
same,% of patients with positive CTL/central memory T cell response,"[3]; phase 2, week 9",39%
same,patients with positive CTL/central memory T cell response / patients tested,"[3]; phase 2, week 9",13/33
same,% of patients with positive CTL/central memory T cell response,"[3]; phase 2, week 18",31%
same,patients with positive CTL/central memory T cell response / patients tested,"[3]; phase 2, week 18",10/32
same,% of patients with positive CTL/central memory T cell response,"[3]; phase 2, week 30",28%
same,patients with positive CTL/central memory T cell response / patients tested,"[3]; phase 2, week 30",9/23
SMPPPGTRV [p53.149M2 A],No. Positive Responses,"[1]; 6 NSCLC patients, Week 9",0
same,No. Positive Responses,"[1]; 6 NSCLC patients, Week 18",0
same,net SFC of vaccine positive CTL responses,"[1]; NSCLC patient 201, Week 9",—
same,net SFC of vaccine positive CTL responses,"[1]; NSCLC patient 201, Week 18",—
same,net SFC of vaccine positive CTL responses,"[1]; NSCLC patient 502, Week 9",—
same,net SFC of vaccine positive CTL responses,"[1]; NSCLC patient 502, Week 18",—
same,net SFC of vaccine positive CTL responses,"[1]; NSCLC patient 504, Week 9",—
same,net SFC of vaccine positive CTL responses,"[1]; NSCLC patient 504, Week 18",—
same,net SFC of vaccine positive CTL responses,"[1]; NSCLC patient 505, Week 9",—
same,net SFC of vaccine positive CTL responses,"[1]; NSCLC patient 505, Week 18",—
same,net SFC of vaccine positive CTL responses,"[1]; NSCLC patient 532, Week 9",—
same,net SFC of vaccine positive CTL responses,"[1]; NSCLC patient 532, Week 18",—
same,net SFC of vaccine positive CTL responses,"[1]; NSCLC patient 651, Week 9",—
same,net SFC of vaccine positive CTL responses,"[1]; NSCLC patient 651, Week 18",—
same,Mean SFC,[2]; Week 9,"18.0 SFC per 50,000 cells"
same,net SFC of vaccine positive CTL responses,"[2]; colon patient 551, Week 9",—
same,net SFC of vaccine positive CTL responses,"[2]; colon patient 551, Week 18",—
same,net SFC of vaccine positive CTL responses,"[2]; colon patient 601, Week 9",—
same,net SFC of vaccine positive CTL responses,"[2]; colon patient 601, Week 18",—
same,net SFC of vaccine positive CTL responses,"[2]; colon patient 602, Week 9",—
same,net SFC of vaccine positive CTL responses,"[2]; colon patient 602, Week 18",—
same,net SFC of vaccine positive CTL responses,"[2]; colon patient 603, Week 9",—
same,net SFC of vaccine positive CTL responses,"[2]; colon patient 603, Week 18",—
same,net SFC of vaccine positive CTL responses,"[2]; colon patient 604, Week 9",—
same,net SFC of vaccine positive CTL responses,"[2]; colon patient 604, Week 18",—
same,net SFC of vaccine positive CTL responses,"[2]; colon patient 605, Week 9",—
same,net SFC of vaccine positive CTL responses,"[2]; colon patient 605, Week 18",—
same,net SFC of vaccine positive CTL responses,"[2]; colon patient 606, Week 9",—
same,net SFC of vaccine positive CTL responses,"[2]; colon patient 606, Week 18",—
same,net SFC of vaccine positive CTL responses,"[2]; colon patient 607, Week 9",—
same,net SFC of vaccine positive CTL responses,"[2]; colon patient 607, Week 18",—
same,net SFC of vaccine positive CTL responses,"[2]; colon patient 608, Week 9","18.0 SFC per 50,000 cells"
same,net SFC of vaccine positive CTL responses,"[2]; colon patient 608, Week 18",—
same,net SFC of vaccine positive CTL responses,"[2]; colon patient 609, Week 9",—
same,net SFC of vaccine positive CTL responses,"[2]; colon patient 609, Week 18",—
same,% of patients with positive CTL/central memory T cell response,"[3]; phase 2, month 9",0%
same,patients with positive CTL/central memory T cell response / patients tested,"[3]; phase 2, month 9",0/7
same,% of patients with positive CTL/central memory T cell response,"[3]; phase 2, month 12",0%
same,patients with positive CTL/central memory T cell response / patients tested,"[3]; phase 2, month 12",0/4
same,% of patients with positive CTL/central memory T cell response,"[3]; phase 2, week 9",9%
same,patients with positive CTL/central memory T cell response / patients tested,"[3]; phase 2, week 9",1/11
same,% of patients with positive CTL/central memory T cell response,"[3]; phase 2, week 18",0%
same,patients with positive CTL/central memory T cell response / patients tested,"[3]; phase 2, week 18",0/11
same,% of patients with positive CTL/central memory T cell response,"[3]; phase 2, week 30",0%
same,patients with positive CTL/central memory T cell response / patients tested,"[3]; phase 2, week 30",0/6
